These results are taken from article PMC10127606, “Salmonella Invasion Is Controlled by Competition among Intestinal Chemical Signals” (mBio, 2023).

In series [1] the target is T1, HilD (Salmonella typhimurium, UniProt P0CL08).
T1 sequence (P0CL08 1-309): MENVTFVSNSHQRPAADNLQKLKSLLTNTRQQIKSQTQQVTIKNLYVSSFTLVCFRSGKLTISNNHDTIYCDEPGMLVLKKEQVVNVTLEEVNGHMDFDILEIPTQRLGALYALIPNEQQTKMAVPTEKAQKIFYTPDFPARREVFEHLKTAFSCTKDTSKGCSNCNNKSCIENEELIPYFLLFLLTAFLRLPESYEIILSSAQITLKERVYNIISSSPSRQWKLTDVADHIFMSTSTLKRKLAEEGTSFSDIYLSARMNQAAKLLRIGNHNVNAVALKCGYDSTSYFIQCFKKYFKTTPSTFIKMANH
The format is cell-based. Set-up: The stability of HilD in Salmonella carrying a chromosomal tetRA-hilD-3×FLAG tag; expressed in transfected cells; host or cells: Salmonella Typhimurium strain CA2446 (tetRA-hilD-3XFLAG attλ:pDX1::hilA'-lacZ). The procedure: Assays were performed as previously described ([22]). Salmonella strains carrying a chromosomal tetracycline-inducible hilD with a C-terminal 3×FLAG tag and a hilA::lacZY fusion (for invasion gene expression assessment) were grown overnight in LB and then diluted 1:100 into LB buffered with 100 mM MOPS (pH 6.7) with 2.5 μg/mL tetracycline. […] After 1 h of incubation at 37°C with aeration, samples were collected to measure hilA::lacZY expression in a β-galactosidase assay. Individual cultures were then equilibrated to an OD600 of 1. New protein production was halted by adding an antibiotic combination (100 μg/mL rifampin, 200 μg/mL streptomycin, and 50 μg/mL spectinomycin). These cultures were incubated at 37°C with aeration, and 200-μL aliquots were collected every 30 min for 4 h. Samples were lysed in 5× Laemmli buffer, boiled, and immunoblotted with an anti-FLAG antibody to monitor HilD levels.

Series [2] has as its target T1, HilD. Kind of series: biochemical. It counts as binding. Set-up: made in house; host or cells: E. coli BL21(DE3), pET15b. The procedure:
(§1) Assays were performed as previously described in detail in Chowdhury et al. ([15], [16]). Briefly, 96-well polystyrene plates coated with various concentrations of fatty acids in coating buffer (0.05 M sodium carbonate-bicarbonate, pH 9.3) were incubated overnight at 4°C. The wells were washed three times with PBS, followed by the addition of 200 μL blocking buffer (1% Ficoll 400 in PBS). […] The wells were washed, incubated with a 1:1,000 dilution of anti-His tag antibody, and incubated at room temperature for an hour. After washing, the wells were incubated with a 1:5,000 dilution of anti-mouse secondary antibody for an hour. Finally, the wells were washed three times with PBS-T (PBS plus 0.1% Tween 20), and 100 μL OPD (o-phenylenediamine) substrate was added. After color development, the reaction was ended with 1 N sulfuric acid and read spectrophotometrically at 490 nm. Data were analyzed in GraphPad Prism. Nonlinear regression was plotted, and one-site total binding was performed to calculate Kd values.
hilD alleles were cloned into pET15b(+), expressed, and purified as described in detail previously ([15]). Briefly, the pET15b-6XHis-hilD or pET15b-6XHis-hilD^Q290A or pET15b-6XHis-hilD^K293A plasmid was transformed into E. coli BL21(DE3) for expression. Transformants were induced with 5 mM IPTG (isopropyl β-D-1-thiogalactopyranoside) for 4 h. Cultures were centrifuged, lysed, treated with TALON beads, and applied to protein purification columns. Bound protein was eluted and confirmed by SDS-PAGE. Following confirmation, eluted samples were dialyzed overnight. The final protein concentration and quality after dialysis were assessed by Bradford estimation and SDS-PAGE.

In a further series the target is T2, HilD-hilA complex (Salmonella typhimurium, UniProt P0CL08).
T2 construct: made in house; host or cells: E. coli BL21(DE3), pET15b
T2 sequence (P0CL08 1-309): T1 sequence (P0CL08 1-309)
As to the kind of experiment: EMSA of HilD binding to hilA promoter DNA. The conditions noted are these: c2-HDA 20 μM, t2-HDA 40 μM, oleic acid 50 μM; no formic acid.

Series [3] has as its system invasion gene sipC expression. Kind of series: sipC::lacZY reporter β-galactosidase assay. It counts as cell-based. The conditions noted are these: no formic acid preincubation; 10 μM c2-HDA, 40 μM oleic acid. The procedure:
The β-galactosidase assay was performed using the method of Miller, as previously described in detail ([39]). Miller units were calculated using the following equation: Miller units = (OD420 × 1,000)/(OD600 × t × v), where t is the time (minutes) the reaction was allowed to continue before adding the stop solution, v is the volume of culture (mL) assayed, and OD420 and OD600 are the densities of the cultures at 420 and 600 nm, respectively. All reactions were performed in quadruplicates. Data were analyzed in Excel and plotted in GraphPad Prism.

Another series concerns the target T3, HilD^K293A (Salmonella typhimurium, UniProt P0CL08, K293A).
T3 construct: made in house; host or cells: E. coli BL21(DE3), pET15b
T3 sequence (P0CL08 1-309 K293A): T1 sequence (P0CL08 1-309) with K293A
Kind of series: ELISA binding of fatty acids to mutant HilD^K293A. The procedure:
as §1
(§2) hilD alleles were cloned into pET15b(+), expressed, and purified as described in detail previously ([15]). Briefly, the pET15b-6XHis-hilD or pET15b-6XHis-hilD^Q290A or pET15b-6XHis-hilD^K293A plasmid was transformed into E. coli BL21(DE3) for expression. […] The final protein concentration and quality after dialysis were assessed by Bradford estimation and SDS-PAGE.

Series [4] relates to invasion gene hilA expression. As to the kind of experiment: hilA-luxCDABE transcriptional reporter luciferase assay. The format is cell-based. The conditions noted are these: no formic acid preincubation; 500 nM c2-HDA, 40 μM oleic acid, 10 mM propionic acid. The procedure: Salmonella strains carrying luxCDABE reporter plasmids were grown overnight in 5 mL LB broth with appropriate antibiotics. These were subcultured (1:100) in M9 minimal medium with 0.2% glucose and antibiotics for 16 h. […] These were incubated for 3 h at 37°C in an incubator without aeration. Dimethyl sulfoxide (DMSO) or different concentrations of fatty acids were added to the reaction, and replicate aliquots were introduced into the BioTek Synergy H1 microplate reader. Luminescence and OD600 were recorded every half-hour for 24 h. Data were analyzed in GraphPad Prism. For every treatment, the area under the curve (AUC) was calculated. DMSO was normalized to 100%, and other reactions were calculated accordingly.

The next series deals with T4, HilD^Q290A (Salmonella typhimurium, UniProt P0CL08, Q290A).
T4 construct: made in house; host or cells: E. coli BL21(DE3), pET15b
T4 sequence (P0CL08 1-309 Q290A): T1 sequence (P0CL08 1-309) with Q290A
As to the kind of experiment: ELISA binding of fatty acids to mutant HilD^Q290A. The procedure:
as §1, §2
In general terms: An ELISA detects its analyte on a solid surface through an enzyme-linked reagent.

The mark [5] stands for this setting: HilD preincubated with formic acid (500 μM), read-out: Kd.
[6] abbreviates: HilD without formic acid preincubation, read-out: Kd.
Setting [7] is: Kd, HilD preincubated with formic acid (500 μM).
Where [8] appears, read: Kd, HilD without formic acid preincubation.

Where a chain is given by its changes, count along the chain named. Like-named read-outs stand apart in the source and are kept apart here.

Experimental for HilD-hilA complex: Assays were performed as previously described ([15], [16]). […] Various concentrations of the fatty acids (c2-HDA, 20 μM; t2-HDA, 40 μM; or oleic acid, 50 μM) or control solvents were added, and the reaction was incubated at room temperature for 1 h. Dye solution (10 mM Tris, 1 mM EDTA, 50% vol/vol glycerol, 0.001% wt/vol bromophenol blue) was added to a final concentration of 1×, and samples were separated on 7% acrylamide gels. DNA was stained using SYBR Safe and visualized in a Bio-Rad GelDoc imaging system.

As a reminder, the Kd is a measure of binding affinity in units of concentration. For the molecule `CCCCCCCCCCCCC/C=C/C(=O)O` [t2-HDA], the HilD half-life was ~ 127 min at HilD [1] (fatty acid 20 μM after preincubation with formic acid (10 mM)) and ~ 28 min on HilD [1] (fatty acid 20 μM, no formic acid preincubation (DMSO control ~227 min)). For the same molecule, the figures for the dissociation constant (Kd) at HilD [2] (setting [5]) and at HilD [2] (setting [6]) were 177 µM and 15.8 µM, respectively. Besides, the “effect on HilD-hilA complex” value on HilD-hilA complex is listed as “disrupted the HilD-hilA complex”.

Regarding `CCCCCCCCCCCCCCCCC/C=C\C(=O)O` [c2-EA], the Kd at HilD [2] (setting [5]) is 381 µM; at HilD [2] (setting [6]) it was 96.6 µM.

In the case of `CCCCCCCC/C=C\CCCCCCCC(=O)O` [oleic acid], the “effect on sipC expression” value in series [3] is on record as “repressed”. The figures for the dissociation constant Kd at HilD^K293A, on HilD [2] (setting [7]) and on HilD [2] (setting [8]) were 119 µM, 1370 µM and 136 µM, respectively. The “effect on HilD-hilA complex” value on HilD-hilA complex is “disrupted the HilD-hilA complex”. The “effect on hilA expression” value in series [4] is “severely repressed”.

Regarding `CCC(=O)O` [propionic acid], the “effect on hilA expression” value in series [4] is on record as “severely repressed”.

On to `CCCCCCCCCCCCC/C=C\C(=O)O` [c2-HDA, cis-2-hexadecenoic acid], for which the “effect on sipC expression” value in series [3] is recorded as “repressed”. Further, the Kd was 82 µM on HilD [2] (setting [7]), 5.19 µM at HilD [2] (setting [8]) and 12.6 µM on HilD^Q290A. Moreover, the “effect on HilD-hilA complex” value at HilD-hilA complex was “disrupted the HilD-hilA complex”. The “effect on hilA expression” value in series [4] is given as “drastically reduced hilA expression”.
